Experimental data reported in PubChem BioAssay (NCI).
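Where inhibition never reached the appropriate level, the endpoint shown equals the highest concentration tested. Otherwise, values were interpolated linearly from a five-concentration, 48-hour dose response in 96-well plates. Definition used: TGI = concentration required for complete inhibition of growth.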

Columns and labels:
Experiment in all cases: growth of human tumour cells (NCI), 48 h
OVCAR-3 ovarian = system: OVCAR-3 ovarian
RXF 393 renal = system: RXF 393 renal
HCC-2998 colon = system: HCC-2998 colon
SF-268 CNS = system: SF-268 CNS
DU-145 prostate = system: DU-145 prostate
HT29 colon = system: HT29 colon
CAKI-1 renal = system: CAKI-1 renal
NCI-H460 lung = system: NCI-H460 lung
SF-539 CNS = system: SF-539 CNS
CCRF-CEM leukemia = system: CCRF-CEM leukemia
IGROV1 ovarian = system: IGROV1 ovarian
SW-620 colon = system: SW-620 colon
HCT-15 colon = system: HCT-15 colon
ACHN renal = system: ACHN renal
T-47D breast = system: T-47D breast
SNB-75 CNS = system: SNB-75 CNS
NCI-H226 lung = system: NCI-H226 lung
SK-MEL-5 melanoma = system: SK-MEL-5 melanoma
EKVX NSCLC = system: EKVX NSCLC
NCI-H23 lung = system: NCI-H23 lung
SK-MEL-28 melanoma = system: SK-MEL-28 melanoma
KM12 colon = system: KM12 colon
OVCAR-8 ovarian = system: OVCAR-8 ovarian
HOP-62 NSCLC = system: HOP-62 NSCLC
MOLT-4 leukemia = system: MOLT-4 leukemia
BT-549 breast = system: BT-549 breast
MALME-3M melanoma = system: MALME-3M melanoma
COLO 205 colon = system: COLO 205 colon
HCT-116 colon = system: HCT-116 colon
MDA-MB-231 breast = system: MDA-MB-231 breast
A549 NSCLC = system: A549 NSCLC
NCI-H522 lung = system: NCI-H522 lung
786-0 renal = system: 786-0 renal
HS 578T breast = system: HS 578T breast
NCI/ADR-RES ovarian = system: NCI/ADR-RES ovarian
UO-31 renal = system: UO-31 renal
K-562 leukemia = system: K-562 leukemia
OVCAR-5 ovarian = system: OVCAR-5 ovarian
U251 CNS = system: U251 CNS
SF-295 CNS = system: SF-295 CNS
M14 melanoma = system: M14 melanoma
RPMI-8226 leukemia = system: RPMI-8226 leukemia
UACC-257 melanoma = system: UACC-257 melanoma
MCF7 breast = system: MCF7 breast
SK-OV-3 ovarian = system: SK-OV-3 ovarian
UACC-62 melanoma = system: UACC-62 melanoma
SK-MEL-2 melanoma = system: SK-MEL-2 melanoma
SNB-19 CNS = system: SNB-19 CNS
LOX IMVI melanoma = system: LOX IMVI melanoma
MDA-MB-435 = system: MDA-MB-435
HOP-92 NSCLC = system: HOP-92 NSCLC
TK-10 renal = system: TK-10 renal
PC-3 prostate = system: PC-3 prostate
A498 renal = system: A498 renal
OVCAR-4 ovarian = system: OVCAR-4 ovarian

CC(C)(C)c1ccc(O)c(C(O)c2ccncc2)c1 (stereo unspecified)
TGI (OVCAR-3 ovarian): > 100 µM
TGI (RXF 393 renal): > 100 µM
TGI (HCC-2998 colon): > 100 µM
TGI (SF-268 CNS): > 100 µM
TGI (DU-145 prostate): > 100 µM
TGI (HT29 colon): > 100 µM
TGI (CAKI-1 renal): > 100 µM
TGI (NCI-H460 lung): > 100 µM
TGI (SF-539 CNS): > 100 µM
TGI (CCRF-CEM leukemia): > 100 µM
TGI (IGROV1 ovarian): > 100 µM
TGI (SW-620 colon): > 100 µM
TGI (HCT-15 colon): > 100 µM
TGI (ACHN renal): > 100 µM
TGI (T-47D breast): > 100 µM
TGI (SNB-75 CNS): > 100 µM
TGI (NCI-H226 lung): > 100 µM
TGI (SK-MEL-5 melanoma): 66.7 µM
TGI (EKVX NSCLC): > 100 µM
TGI (NCI-H23 lung): > 100 µM
TGI (SK-MEL-28 melanoma): > 100 µM
TGI (KM12 colon): > 100 µM
TGI (OVCAR-8 ovarian): > 100 µM
TGI (HOP-62 NSCLC): > 100 µM
TGI (MOLT-4 leukemia): > 100 µM
TGI (BT-549 breast): > 100 µM
TGI (MALME-3M melanoma): > 100 µM
TGI (COLO 205 colon): > 100 µM
TGI (HCT-116 colon): > 100 µM
TGI (MDA-MB-231 breast): > 100 µM
TGI (A549 NSCLC): > 100 µM
TGI (NCI-H522 lung): > 100 µM
TGI (786-0 renal): > 100 µM
TGI (HS 578T breast): > 100 µM
TGI (NCI/ADR-RES ovarian): > 100 µM
TGI (UO-31 renal): > 100 µM
TGI (K-562 leukemia): > 100 µM
TGI (OVCAR-5 ovarian): > 100 µM

CN(C)C1(N(C)C)Oc2c(c(=O)n(C)c(=O)n2C)C(c2ccccc2)C1(F)F (stereo unspecified)
TGI (OVCAR-3 ovarian): > 100 µM
TGI (RXF 393 renal): > 100 µM
TGI (HCC-2998 colon): > 100 µM
TGI (SF-268 CNS): > 100 µM
TGI (DU-145 prostate): > 100 µM
TGI (U251 CNS): > 100 µM
TGI (SF-295 CNS): > 100 µM
TGI (CAKI-1 renal): > 100 µM
TGI (M14 melanoma): > 100 µM
TGI (NCI-H460 lung): > 100 µM
TGI (CCRF-CEM leukemia): > 100 µM
TGI (RPMI-8226 leukemia): > 100 µM
TGI (SW-620 colon): > 100 µM
TGI (HCT-15 colon): > 100 µM
TGI (ACHN renal): > 100 µM
TGI (UACC-257 melanoma): > 100 µM
TGI (T-47D breast): > 100 µM
TGI (SNB-75 CNS): > 100 µM
TGI (MCF7 breast): > 100 µM
TGI (NCI-H226 lung): > 100 µM
TGI (SK-MEL-5 melanoma): > 100 µM
TGI (EKVX NSCLC): > 100 µM
TGI (NCI-H23 lung): > 100 µM
TGI (SK-MEL-28 melanoma): > 100 µM
TGI (SK-OV-3 ovarian): > 100 µM
TGI (KM12 colon): > 100 µM
TGI (UACC-62 melanoma): > 100 µM
TGI (HOP-62 NSCLC): > 100 µM
TGI (MOLT-4 leukemia): > 100 µM
TGI (SK-MEL-2 melanoma): > 100 µM
TGI (BT-549 breast): > 100 µM
TGI (SNB-19 CNS): > 100 µM
TGI (COLO 205 colon): > 100 µM
TGI (HCT-116 colon): > 100 µM
TGI (LOX IMVI melanoma): > 100 µM
TGI (MDA-MB-231 breast): > 100 µM
TGI (MDA-MB-435): > 100 µM
TGI (HOP-92 NSCLC): > 100 µM
TGI (TK-10 renal): > 100 µM
TGI (A549 NSCLC): > 100 µM
TGI (786-0 renal): > 100 µM
TGI (NCI/ADR-RES ovarian): > 100 µM
TGI (UO-31 renal): > 100 µM
TGI (K-562 leukemia): > 100 µM
TGI (OVCAR-5 ovarian): > 100 µM
TGI (PC-3 prostate): > 100 µM
TGI (A498 renal): > 100 µM
TGI (OVCAR-4 ovarian): > 100 µM
